Assay results published in PubChem BioAssay AID624404 (Broad Institute, 2012).
Records with an inconclusive call do not appear.

test system: D54 LucT luciferase reporter counterscreen, luminescence, 24 h; experiment: luciferase activators in glycosylation-insensitive reporter cells, dose response, counter-screen for N-linked glycosylation inhibitor project, D54 LucT cells, luminescence, cherry pick (AID 624404)

Compared with COc1ccc2c(c1)[C@H]1[C@H](CO2)[C@H](c2ccccc2)[C@]2(C)C(=O)Nc3ccc(Cl)cc3C(=O)N12, COc1ccc2c(c1)[C@H]1[C@H](CO2)[C@H](c2ccccc2)[C@]2(C)C(=O)Nc3ccc(Br)cc3C(=O)N12 is 1.6-fold higher in AC35: 148 nM for the first, 233 nM for the second.

Compared with COc1ccc(C(=O)/C=C/c2ccccc2)c(O)c1, O=C(C=Cc1cccc(O)c1)c1ccccc1O is 11-fold higher in AC35: 404 nM for the first, 4500 nM for the second.

O=C(NC1CCCCCC1)c1c2c(nc3ccccc13)CCN(Cc1ccccc1)C2 and CC(C)(C)OC(=O)[C@H](Cc1ccccc1)NC(=O)c1nc[nH]c1C(=O)N1CCc2ccccc2C1 are within 1.5-fold of each other in AC35: 3450 nM for the first, 2550 nM for the second.

First: Cc1nnc2c3ccccc3c(-c3cccs3)nn12
Second: O=C1C=C(c2cccs2)C[C@H](c2ccccc2)[C@H]1n1nnc([N+](=O)[O-])n1
The AC35 of the first is 1.5-fold higher: 312 nM for the first, 208 nM for the second.

Going from COc1ccc2nc(C)cc(Nc3ccc(N4CCN(C)CC4)cc3)c2c1 to Oc1ccc(Nc2nc(N3CCCC3)c3ccccc3n2)cc1, the AC35 falls from 4750 nM to 150 nM (32-fold).

First: CCOc1ccc2cc(/C=C/C(=O)c3ccco3)c(Cl)nc2c1
Second: O=C(/C=C/c1ccccc1Cl)c1ccc(O)cc1
The AC35 of the first is 21-fold higher: 4140 nM for the first, 201 nM for the second.

Compared with Cc1ccc(S(=O)(=O)NC2=C(N3CCN(Cc4ccccc4)CC3)C(=O)c3ccccc3C2=O)cc1, Cc1cccc(N2CCN(C(=O)c3ccc(Cl)c(S(=O)(=O)NCc4ccco4)c3)CC2)c1C is 13-fold lower in AC35: 2540 nM for the first, 202 nM for the second.

First: COc1ccc(/C=C/C(=O)Oc2cccc(/C=N/NC(=O)COc3c(C)cccc3C)c2)cc1
Second: COc1cc(/C=C/C(=O)OCC(=O)NCc2ccc(F)cc2)ccc1O
The AC35 of the first is 37-fold higher: 3250 nM for the first, 88.1 nM for the second.

First: Oc1ccc(-c2csc(-c3c[nH]c4ccccc34)n2)c(O)c1
Second: COc1cc(F)ccc1-c1csc(C(NC(C)=O)c2ccccc2)n1 (centres undefined)
The AC35 of the first is 2.9-fold higher: 697 nM for the first, 243 nM for the second.

Compared with COc1ccccc1NS(=O)(=O)c1ccc(-c2cc(C)no2)s1, CC1CN(C(=O)c2cc(-c3ccc(Cl)s3)nc3ccccc23)CC(C)O1 (centres undefined) is 5.5-fold lower in AC35: 18300 nM for the first, 3320 nM for the second.

Going from Cc1noc(C)c1COc1cccc(C(=O)OC(C)C(=O)Nc2ccc3c(c2)OCO3)c1 (centres undefined) to Cc1noc(C)c1-c1ccc(C(=O)NCc2cccnc2)c2occc12, the AC35 falls from 1600 nM to 297 nM (5.4-fold).

CCC(C)C(=O)OC1CCC=C2C=CC(C)C(CCC3CC(O)CC(=O)O3)C21 (centres undefined) and COC(=O)c1c(NC(=O)CN2C(=O)NC3(CCC(C)CC3)C2=O)sc2c1CCC2 (centres undefined) are within 1.5-fold of each other in AC35: 499 nM for the first, 592 nM for the second.

Compared with O=C(N/N=C/c1cccnc1)c1cc(-c2ccccc2OCc2ccccc2)n[nH]1, O=C(Nc1ncccc1O)c1ccc(C(=O)c2ccccc2)cc1 is 3.2-fold lower in AC35: 2460 nM for the first, 773 nM for the second.

Compared with C[C@@]12C(=O)Nc3cc(F)c(F)cc3C(=O)N1[C@H]1c3cc(Cl)ccc3OC[C@@H]1[C@@H]2c1ccccc1, COc1ccc2c(c1)[C@H]1[C@H](CO2)[C@H](c2ccccc2)[C@]2(C)C(=O)Nc3ccccc3C(=O)N12 is 4.5-fold lower in AC35: 1600 nM for the first, 353 nM for the second.

First: Cc1ccc(NC2=NC3(CCCC3)N=C(N)N2)c(C)c1
Second: Cc1c(Cl)cccc1Nc1nc(N)nc(CN2CCc3ccccc3C2)n1
The AC35 of the first is 12-fold higher: 7540 nM for the first, 614 nM for the second.

First: CC(C)n1c(/C=C/[C@H](O)C[C@H](O)CC(=O)O)c(-c2ccc(F)cc2)c2ccccc21
Second: Cc1ccc(-c2cc(C(=O)Nc3ccncc3)c3ccccc3n2)cc1
The AC35 of the first is 12-fold lower: 370 nM for the first, 4300 nM for the second.

Going from C=C(C)Cn1c2ccc(NC(=O)CCc3cccc(Cl)c3)cc2c(=O)n1C to CC(=O)Nc1ccc2cc3ccc(NC(C)=O)cc3nc2c1, the AC35 falls from 4260 nM to 838 nM (5.1-fold).

Compared with COc1cc(C(=O)Nc2ccc3c(c2)nc(C)n3C)cc(OC)c1OC, CCOC(=O)c1c(C)nc2c(c1-c1cc(OC)c(OC)c(OC)c1)C(=O)c1ccccc1-2 is 2.2-fold lower in AC35: 1130 nM for the first, 514 nM for the second.

Compared with COc1cc2c(cc1OC)C(c1cccs1)N(C(=O)c1ccncc1)CC2 (centres undefined), COc1cc(-c2cc3nc(NCCc4ccncc4)ccn3n2)cc(OC)c1OC is 2.1-fold lower in AC35: 1700 nM for the first, 806 nM for the second.

Compared with NC(=O)CC(NC(=O)c1ccc(Br)cc1)c1ccc(N2CCCCCC2)c([N+](=O)[O-])c1 (centres undefined), Cc1ccc(C(=O)N2CCC(C(=O)Nc3cccc([N+](=O)[O-])c3)CC2)cc1 is 1.6-fold higher in AC35: 1090 nM for the first, 1700 nM for the second.

CCN(CCCNC(=O)CCCOc1cc(=O)n(C)c2ccccc12)Cc1ccccc1 and Cn1c(SCC(=O)c2ccccc2)ncc(C(=O)Nc2ccccc2)c1=O are within 1.5-fold of each other in AC35: 510 nM for the first, 382 nM for the second.

Going from CN1/C(=C/C=C(/C#N)C(N)=O)C(C)(C)c2ccccc21 to O=C1COc2ccc(C(=O)/C=C/c3ccccc3)cc2N1, the AC35 rises from 7.24 nM to 641 nM (89-fold).

Compared with COc1cc(C#Cc2ccc3cc(CCCO)oc(=O)c3c2)cc(OC)c1, COc1ccc(CC(=O)NCc2ccc(-n3cccc3)cc2)cc1OC is 26-fold higher in AC35: 62.8 nM for the first, 1610 nM for the second.

Compared with Cc1ccc2nsnc2c1NC(=O)c1ccc(-c2cc(Cl)ccc2Cl)o1, NNC(=O)c1ccc(OCC2CC(c3ccc(Cl)cc3)=NO2)cc1 (centres undefined) is 9.9-fold lower in AC35: 1550 nM for the first, 157 nM for the second.

Going from COc1cccc(/C=N/NC(=O)c2cc3c(OC)c(OC)ccc3[nH]2)c1OC to Cc1cc(=O)oc2cc(OCC3CC(c4ccccc4)=NO3)ccc12 (centres undefined), the AC35 falls from 4940 nM to 1540 nM (3.2-fold).

Going from Cc1ccc(Sc2c(CO)c(-c3ccccc3)nn2C)cc1 to CCCCCCn1c(=O)n2n(c1=O)[C@@H]1CN(S(=O)(=O)c3ccc(C)cc3)C[C@]1(O)[C@@H](OC(=O)NCc1ccccc1)C2, the AC35 rises from 166 nM to 717 nM (4.3-fold).

Going from COC(=O)[C@@H]1C[C@H]1[C@@H](NP(=O)(c1ccccc1)c1ccccc1)c1ccccc1 to O=C(NCCN1C(=O)S/C(=C\c2ccccc2F)C1=O)C1=COCCO1, the AC35 falls from 3100 nM to 214 nM (14-fold).
